Test system: aldosterone monoacetate
Experiment: Anti-aldosterone activity in surrenalectomized rats (urinary sodium/potassium)
Assay type: in vivo, rat (male, Sprague-Dawley)
Settings: for % inhibition of the activity of 1 μg/kg of aldosterone monoacetate: surrenalectomized male Sprague-Dawley rats, aldosterone 1 μg/kg s.c., 4 hours urine, sodium and potassium; for antialdosterone activity (in words): orally administered
Method: Male rats of the Sprague-Dawley strain weighing about 180 g were surrenalectomized and at that moment, the rats received with their drinking water physiological serum. On the 4th day, the animals were fasted for 16 hours and then received as drinking water water containing 5% glucose. The test product was administered orally at the end of 16 hours in the form of a suspension in 0.25% carboxymethylcellulose. One hour after the administration of the product, they received intraperitoneally a surcharge of aqueous sodium chloride at a rate of 5 ml per 100 g of body weight of […] physiological serum and subcutaneously 1 μg/kg of an alcoholic solution of 2.5% of aldosterone acetate. The animals were placed in diuresis cages without food or drink for 4 hours. At the end of this time, a miction was forced by pressure on the bladder and the volume of urine was adjusted to 50 ml and the amount of sodium and potassium was determined with an autoanalyser. The results expressed as the percentage of inhibition of the activity of 1 μg/kg of aldosterone monoacetate injected subcutaneously with the ratio of [formula] in the surrenalectomized rats is reported in the following Table.

Row | Compound | % inhibition of the activity of 1 μg/kg of aldosterone monoacetate (oral dose 10 mg/kg) [%] | antialdosterone activity (in words) | % inhibition of the activity of 1 μg/kg of aldosterone monoacetate (oral dose 5 mg/kg) [%]
1 | CC1(C)CC2=C3C=CC4(C)C(C(=O)CO)CCC4C3CCC2=CC1=O (stereo not shown) [Example 9, 2,2-dimethyl-19-nor-Δ^4,9,11-pregnatriene-21-ol-3,20-dione] | 91 | interesting antialdosterone activity | 
2 | CC1(C)CC2C(=CC1=O)CCC1C2CCC2(C)C(C(=O)CO)CCC12 (stereo not shown) [Example 3, 2,2-dimethyl-19-nor-Δ^4-pregnene-21-ol-3,20-dione] |  | interesting antialdosterone activity | 50

Source: patent US4136179A, “2,2-Dimethyl-19-nor-steroids” (Roussel Uclaf, priority 1976, dated 1979)
